From patent US9670150B2, “(2-ureidoacetamido)alkyl derivatives as formyl peptide receptor 2 modulators” (Allergan, Inc., priority 2012, dated 2017) come the findings set out here.

Like-named read-outs stand apart in the source and are kept apart here.

In the assay the target is T1, FPR2 (Homo sapiens, UniProt P25090).
T1 construct: expressed in transfected cells; host or cells: CHO-Ga16 cells stably expressing FPR2
T1 sequence (P25090 1-351): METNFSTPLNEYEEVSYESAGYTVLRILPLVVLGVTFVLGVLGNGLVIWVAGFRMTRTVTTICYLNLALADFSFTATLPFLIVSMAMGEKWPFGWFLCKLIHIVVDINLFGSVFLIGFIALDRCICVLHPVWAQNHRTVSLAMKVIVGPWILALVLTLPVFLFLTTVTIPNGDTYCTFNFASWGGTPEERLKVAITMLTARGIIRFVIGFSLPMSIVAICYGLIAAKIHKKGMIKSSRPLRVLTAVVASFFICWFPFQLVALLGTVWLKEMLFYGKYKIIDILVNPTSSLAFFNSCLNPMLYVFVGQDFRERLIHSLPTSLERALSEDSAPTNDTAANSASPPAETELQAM
The experiment in a line: compound-induced calcium activity on FLIPR Tetra in CHO-Ga16 cells stably expressing FPR2. The assay is classed as cell-based. The conditions noted are these: for Emax: efficacy value given as a fraction, read-out: FPR2 Ga16-CHO (0.% eff) efficacy. As to the method: CHO-Ga16 cells stably expressing FPR2 were cultured in (F12, 10% FBS, 1% PSA, 400 μg/ml geneticin and 50 μg/ml hygromycin) and HEK-Gqi5 cells stable expressing FPR2 were cultured in (DMEM high glucose, 10% FBS, 1% PSA, 400 μg/ml geneticin and 50 μg/ml hygromycin). In general, the day before the experiment, 18,000 cells/well were placed in a 384-well clear bottom poly-d-lysine coated plate. The following day the screening compound-induced calcium activity was assayed on the FLIPR^Tetra. The drug plates were prepared in 384-well microplates using the EP3 and the MuItiPROBE robotic liquid handling systems. Compounds were tested at concentrations ranging from 0.61 to 10,000 nM. Results are expressed as EC50 (nM) and efficacy values.

[1] abbreviates: CHO-Ga16 cells stably expressing FPR2, calcium activity, FLIPR Tetra, concentrations 0.61 to 10,000 nM.
The mark [2] stands for this setting: CHO-Ga16 cells stably expressing FPR2.

In general, EC50 refers to the midpoint of the concentration-response curve. On to `CCOP(=O)(CNC(=O)[C@H](CC(C)C)NC(=O)Nc1ccc(Br)cc1)OCC` [Compound 1, Diethyl({[(2S)-2-({[(4-bromophenyl)amino]carbonyl}amino)-4-methylpentanoyl]amino}methyl)phosphonate], for which the EC50 under setting [1] was 0.59 nM. Further, the Emax under setting [2] was found to be 100%.
The corresponding values for `CC(C)C[C@H](NC(=O)Nc1ccc(Br)cc1)C(=O)NCc1nnn[nH]1` [Compound 2, (2S)-2-({[(4-Bromophenyl)amino]carbonyl}amino)-4-methyl-N-(1H-tetrazol-5-ylmethyl)pentanamide] are 2.3 nM and 81%.
As to `CC(C)C[C@H](NC(=O)Nc1ccc(Br)cc1)C(=O)NCCc1nnn[nH]1` [Compound 3, (2S)-2-({[(4-Bromophenyl)amino]carbonyl}amino)-4-methyl-N-[2-(1H-tetrazol-5-yl)ethyl]pentanamide], the EC50 under setting [1] was found to be 47.9 nM. Further, the Emax under setting [2] was found to be 100%.
As to `CC(C)C[C@H](NC(=O)Nc1ccc(Br)cc1)C(=O)NCc1cc(O)no1` [Compound 4, (2S)-2-({[(4-Bromophenyl)amino]carbonyl}amino)-N-[(3-hydroxyisoxazol-5-yl)methyl]-4-methylpentanamide], under setting [1], the EC50 stood at 12 nM. The Emax under setting [2] was determined as 100%.
For `CCOP(=O)(CNC(=O)[C@@H](NC(=O)Nc1ccc(Br)cc1)[C@@H](C)CC)OCC` [Compound 5, Diethyl ({[(2S,3S)-2-({[(4-bromophenyl)amino]carbonyl}amino)-3-methylpentanoyl]amino}methyl)phosphonate] the same measures were 2.4 nM and 100%.
For the compound `CCC[C@H](NC(=O)Nc1ccc(Br)cc1)C(=O)NCP(=O)(OCC)OCC` [Compound 6, Diethyl ({[(2S)-2-({[(4-bromophenyl)amino]carbonyl}amino)pentanoyl]amino}methyl)phosphonate], the EC50 under setting [1] turned out to be 0.29 nM. For the same compound, the Emax under setting [2] is 94%.
For `CCOP(=O)(CNC(=O)[C@H](Cc1ccccc1)NC(=O)Nc1ccc(Br)cc1)OCC` [Compound 7, Diethyl ({[(2S)-2-({[(4-bromophenyl)amino]carbonyl}amino)-3-phenylpropanoyl]amino}methyl)phosphonate] the same measures were 20 nM and 98%.
For `CCOP(=O)(CCNC(=O)[C@H](CC(C)C)NC(=O)Nc1ccc(Br)cc1)OCC` [Compound 8, Diethyl (2-{[(2S)-2-({[(4-bromophenyl)amino]carbonyl}amino)-4-methylpentanoyl]amino}ethyl)phosphonate], the EC50 under setting [1] worked out at 1.8 nM. The Emax under setting [2] turned out to be 100%.
Consider `CCC[C@H](NC(=O)Nc1ccc(Br)cc1)C(=O)NCP(=O)(OC(C)C)OC(C)C` [Compound 9, Diisopropyl ({[(2S)-2-({[(4-bromophenyl)amino]carbonyl}amino)pentanoyl]amino}methyl)phosphonate], for which the EC50 under setting [1] turned out to be 0.8 nM. In addition, the Emax under setting [2] worked out at 94%.
`CC(C)C[C@H](NC(=O)Nc1ccc(Br)cc1)C(=O)NCP(=O)(OC(C)C)OC(C)C` [Compound 10, Diisopropyl ({[2-({[(4-bromophenyl)amino]carbonyl}amino)-4-methylpentanoyl]amino}methyl)phosphonate]: the EC50 under setting [1] amounted to 4 nM. Also, under setting [2], the Emax was 100%.
For `CCOP(=O)(CNC(=O)[C@H](CC(C)C)NC(=O)Nc1ccc(C(F)(F)F)cc1)OCC` [Compound 11, Diethyl [({(2S)-4-methyl-2-[({[4-(trifluoromethyl)phenyl]amino}carbonyl)amino]pentanoyl}amino)methyl]phosphonate] the same measures were 8 nM and 100%.
As to `CC(C)C[C@H](NC(=O)Nc1ccc(C(F)(F)F)cc1)C(=O)NCc1nnn[nH]1` [Compound 12, (2S)-4-methyl-N-(1H-tetrazol-5-ylmethyl)-2-[({[4-(trifluoromethyl)phenyl]amino}carbonyl)amino]pentanamide], under setting [1], the EC50 was determined as 4 nM. The Emax under setting [2] was 91%.
For `CC(C)C[C@H](NC(=O)Nc1ccc(C(F)(F)F)cc1)C(=O)NCS(=O)(=O)O` [Compound 13, ({(2S)-4-methyl-2-[({[4-(trifluoromethyl)phenyl]amino}carbonyl)amino]pentanoyl}amino)methanesulfonic acid] the same measures were 1.6 nM and 100%.
For `CCOP(=O)(CNC(=O)[C@H](CC(C)C)NC(=O)Nc1ccc(SC)cc1)OCC` [Compound 14, Diethyl [({(2S)-4-methyl-2-[({[4-(methylthio)phenyl]amino}carbonyl)amino]pentanoyl}amino)methyl]phosphonate] the same measures were 2.1 nM and 90%.
With `CCOP(=O)(O)CNC(=O)[C@H](CC(C)C)NC(=O)Nc1ccc(Br)cc1` [Compound 15, Ethyl hydrogen({[(2S)-2-({[(4-bromophenyl)amino]carbonyl}amino)-4-methylpentanoyl]amino}methyl)phosphonate], the EC50 amounted to 0.95 nM. Further, the Emax under setting [2] came to 88%.
Take `CCOP(=O)(O)CNC(=O)[C@@H](NC(=O)Nc1ccc(Br)cc1)[C@@H](C)CC` [Compound 16, Ethyl hydrogen ({[(2S,3S)-2-({[(4-bromophenyl)amino]carbonyl}amino)-3-methylpentanoyl]amino}methyl)phosphonate]: the EC50 under setting [1] is 3.2 nM. The Emax under setting [2] was 88%.
For the compound `CCC[C@H](NC(=O)Nc1ccc(Br)cc1)C(=O)NCP(=O)(O)OCC` [Compound 17, Ethyl hydrogen ({[(2S)-2-({[(4-bromophenyl)amino]carbonyl}amino)pentanoyl]amino}methyl)phosphonate], the EC50 was 1 nM. Besides, under setting [2], the Emax came to 94%.
Turning to `CCOP(=O)(O)CNC(=O)[C@H](Cc1ccccc1)NC(=O)Nc1ccc(Br)cc1` [Compound 18, Ethyl hydrogen ({[(2S)-2-({[(4-bromophenyl)amino]carbonyl}amino)-3-phenylpropanoyl]amino}methyl)phosphonate], the EC50 stood at 16 nM. Moreover, the Emax under setting [2] amounted to 110%.
`CCCC(NC(=O)Nc1ccc(Br)cc1)C(=O)NCP(=O)(O)OC(C)C` (centres unmarked) [Compound 19, Iso-propyl hydrogen ({[2-({[(4-bromophenyl)amino]carbonyl}amino)pentanoyl]amino}methyl)phosphonate]: under setting [1], the EC50 is 1.87 nM. Further, under setting [2], the Emax amounted to 89%.
Consider `CCOP(=O)(O)CNC(=O)[C@H](CC(C)C)NC(=O)Nc1ccc(C(F)(F)F)cc1` [Compound 20, Ethyl hydrogen [({(2S)-4-methyl-2-[({[4-(trifluoromethyl)phenyl]amino}carbonyl)amino]pentanoyl}amino)methyl]phosphonate], for which the EC50 under setting [1] came out at 2 nM. Also, the Emax under setting [2] came to 95%.
The corresponding values for `CCOP(=O)(O)CNC(=O)[C@H](CC(C)C)NC(=O)Nc1ccc(S(C)(=O)=O)cc1` [Compound 21, ethyl hydrogen [({(2S)-4-methyl-2-[({[4-(methylsulfonyl)phenyl]amino}carbonyl)amino]pentanoyl}amino)methyl]phosphonate] are 133 nM and 99%.
The corresponding values for `CCC[C@H](NC(=O)Nc1ccc(Br)cc1)C(=O)NCP(=O)(O)O` [Compound 22, ({[(2S)-2-({[(4-bromophenyl)amino]carbonyl}amino)pentanoyl]amino}methyl)phosphonic acid] are 32 nM and 94%.
Turning to `CC(C)C[C@H](NC(=O)Nc1ccc(C(F)(F)F)cc1)C(=O)NCP(=O)(O)O` [Compound 23, [({(2S)-4-methyl-2-[({[4-(trifluoromethyl)phenyl]amino}carbonyl)amino]pentanoyl}amino)methyl]phosphonic acid], the EC50 under setting [1] was 64 nM. Under setting [2], the Emax came to 102%.
For `CCOP(=O)(CNC(=O)[C@H](CC(C)C)NC(=O)Nc1ccc(S(C)(=O)=O)cc1)OCC` [Compound 24, Diethyl[({(2S)-4-methyl-2-[({[4-(methylsulfonyl)phenyl]amino}carbonyl)amino]pentanoyl}amino)methyl]phosphonate] the same measures were 45 nM and 112%.
With `CC(C)C[C@H](NC(=O)Nc1ccc(Br)cc1)C(=O)NCS(=O)(=O)O` [{[(2S)-2-{[(4-Bromophenyl)carbamoyl]amino}-4-methylpentanoyl]amino}methanesulfonic acid], under setting [1], the EC50 was 2.3 nM. In addition, the Emax under setting [2] was determined as 91%.
